# Tests used:
# Human EDG-1 = biological target: T1, Human EDG-1 (Homo sapiens, UniProt P21453); experiment: Agonistic activity against EDG by monitoring changes in intracellular calcium ion [Ca^2+]i concentration; assay type: cell-based; settings: Human EDG-1 overexpressing CHO cells; Fura2-AM; control 100 nM S1P; read-out: EC50 of agonistic activity against EDG-1 (increase ratio of intracellular calcium ion concentration)
# T1 construct: expressed in transfected cells; host or cells: CHO cells
# T1 sequence (P21453 whole entry): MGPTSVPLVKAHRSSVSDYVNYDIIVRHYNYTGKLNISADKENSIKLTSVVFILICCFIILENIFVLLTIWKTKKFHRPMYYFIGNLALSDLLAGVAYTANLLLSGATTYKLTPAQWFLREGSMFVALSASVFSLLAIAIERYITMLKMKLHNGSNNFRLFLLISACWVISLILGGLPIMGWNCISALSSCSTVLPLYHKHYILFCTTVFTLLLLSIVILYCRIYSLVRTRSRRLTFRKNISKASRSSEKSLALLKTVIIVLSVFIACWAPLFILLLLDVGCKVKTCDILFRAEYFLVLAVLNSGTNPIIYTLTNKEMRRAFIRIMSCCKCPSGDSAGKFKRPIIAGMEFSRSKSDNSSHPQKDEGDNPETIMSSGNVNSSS
# Procedure: Evaluation of an Agonistic Activity Against EDG of the Compound of the Present Invention by Monitoring Changes in Intracellular Calcium Ion [Ca^2+]i Concentration
# Human EDG-1, EDG-3, EDG-5 or EDG-8 gene overexpressing CHO cells were cultured in Ham's F12 medium (manufactured by GIBCO BRL) containing 10% FBS (fetal bovine serum), penicillin/streptomycin and blasticidin (5 μg/ml). The cultured cells were incubated in a 5 μM Fura2-AM solution (Ham's F12 medium containing 10% of FBS, 20 mM HEPES buffer (pH7.4), and 2.5 mM probenecid) at 37° C. for 60 minutes. After washing once with Hanks solution containing 20 mM HEPES buffer (pH7.4), and 2.5 mM probenecid, the plate was soaked in the same solution until assay. Then, the plate was set on a fluorescent drug screening system (FDSS 6000; Hamamatsu Photonics) and the intracellular calcium ion concentration was measured without stimulation for 30 seconds. A test compound (final concentration: 1 nM to 10 μM, dimethylsulfoxide (DMSO) solution) was added and S1P (final concentration: 100 nM) was added 5 minutes thereafter. Then, the increase in the intracellular calcium ion concentration was measured before and after the addition of S1P at intervals of 3 seconds (excitation wavelength: 340 nm and 380 nm, fluorescence wavelength: 500 nm). […]
# EDG-6 = biological target: T2, EDG-6 (Homo sapiens, UniProt O95977); experiment: Inhibitory activity on binding of [^3H]-PhS1P to EDG-6; settings: cell membrane fraction of EDG-6-overexpressing CHO cell; 10 nmol/L [^3H]-PhS1P solution; read-out: IC50 of inhibition of binding of [^3H]-PhS1P to EDG-6
# T2 construct: expressed in transfected cells; host or cells: Chinese Hamster Ovary (CHO) cells, membrane fraction
# T2 sequence (O95977 1-384): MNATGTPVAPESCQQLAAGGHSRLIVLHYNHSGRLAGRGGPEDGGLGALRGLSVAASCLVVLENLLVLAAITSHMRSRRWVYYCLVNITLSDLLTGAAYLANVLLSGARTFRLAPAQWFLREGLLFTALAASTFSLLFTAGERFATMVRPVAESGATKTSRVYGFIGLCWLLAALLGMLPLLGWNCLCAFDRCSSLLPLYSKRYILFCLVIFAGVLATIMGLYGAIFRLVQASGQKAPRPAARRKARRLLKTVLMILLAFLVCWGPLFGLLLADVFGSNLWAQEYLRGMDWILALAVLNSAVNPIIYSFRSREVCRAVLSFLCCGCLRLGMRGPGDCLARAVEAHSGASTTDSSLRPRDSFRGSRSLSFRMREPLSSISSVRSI
# Procedure: Measurement of Inhibitory Activity of the Compound of the Present Invention on Binding of [^3H]-PhS1P to EDG-6
# By using cell membrane fraction of an EDG-6-overexpressing Chinese Hamster Ovary (CHO) cell and 1 mg protein/mL of the membrane fraction, reaction was carried out in a 96-well plate. Into each well, 80 μL of a vehicle (DMSO) solution diluted with 2× binding buffer (100 mmol/L Tris pH 7.5, 200 mM NaCl, 30 mM NaF, 1% BSA) or a ligand solution having a twice higher concentration and 40 μL of 10 nmol/L [^3H]-PhS1P (5,5,6,6,-[…] phytosphingosine 1-phosphate: This was prepared in the following manner. A compound (anti-7-tert-butyl (4S)-4-[(1S,2R)-1-(benzyloxy)-2-hydroxyhexadec-3-yn-1-yl]-2,2-dimethyl-1,3-oxazolizine-3-carboxylate) prepared in accordance with a method reported in a document (Tetrahedron Lett., 38(34), 6027-6030 (1997)) was reacted with benzyl bromide in tetrahydrofuran in the presence of potassium hexamethyldisilylamide to thereby protect the hydroxy group of the compound. Then, it was treated in hydrogen chloride/methanol solution to remove an acetonide group. The compound thus obtained was reacted with N,N-diethyl-1,5-dihydro-2,4,3-benzodioxaphosphepin-3-amine in dichloromethane in the presence of tetrazole and then oxidized with m-chloroperbenzoic acid. Then, it was reacted in the presence of ASCA-2 catalyst (manufactured by NE Chemcat, 4.5% palladium-0.5% platinum catalyst carried on active carbon, see, Fine Chemical, Oct. 1, 2002, pages 5 to 14) in methanol under a tritium atmosphere. The obtained compound was treated with a 4 N hydrogen chloride/1,4-dioxane solution in dichloromethane to thereby obtain the desired compound) were added. Further, 40 μl of the membrane fraction solution was added and reacted at room temperature for 60 minutes. […] Then, 50 μl/well of Micro Scint 20 was added and the plate was covered with Top Seal-P. Then the radioactivity was measured with Top Count (Perkin Elmer).
IC50 (EDG-6),Compound,EC50 (Human EDG-1)
,"c1ccc(CCCCOc2ccc3cc(CN4CCCCC4)ccc3c2)cc1 [Example 5, 1-{[6-(4-phenylbutoxy)-2-naphthyl]methyl}piperidine]",7800 nM
,O=C(NS(=O)(=O)c1ccccc1)C1CN(Cc2ccc3cc(OCCCc4ccccc4)ccc3c2)C1 [Example 6],250 nM
26 nM,"CCNCC1=C(C)c2ccc(OCC(C)Cc3ccc(F)cc3)cc2CC1 (centres unmarked) [Example 27, N-({6-[3-(4-fluorophenyl)-2-methylpropoxy]-1-methyl-3,4-dihydro-2-naphthalenyl}methyl)ethanamine]",
98 nM,"COc1cc(CC(C)C)ccc1COc1ccc2c(c1)CCC(CN1CC(CO)C1)=C2C [Example 37-1, [1-({6-[(4-isobutyl-2-methoxybenzyl)oxy]-1-methyl-3,4-dihydro-2-naphthalenyl}methyl)-3-azetidinyl]methanol]",
81 nM,"COc1cc(CC(C)C)ccc1COc1ccc2c(c1)CCC(CN1CCN(c3ccccn3)CC1)=C2C [Example 66-24, 1-({6-[(4-isobutyl-2-methoxybenzyl)oxy]-1-methyl-3,4-dihydro-2-naphthalenyl}methyl)-4-(2-pyridinyl)piperazine]",

# Source: patent US8653305B2, “Compound having S1P receptor binding potency and use thereof” (Ono Pharmaceutical Co., Ltd., priority 2004, dated 2014)
